The source made the active and inactive calls. No rule for the calls is given here.
target: G-protein coupled receptor 151 (Homo sapiens) (UniProt Q8TDV0); assay: GPR151 activator potency, dose response, cell-based (AID 1508610); conditions: cell-based GPR151 activation reporter
Sequence (Q8TDV0 whole entry, looked up): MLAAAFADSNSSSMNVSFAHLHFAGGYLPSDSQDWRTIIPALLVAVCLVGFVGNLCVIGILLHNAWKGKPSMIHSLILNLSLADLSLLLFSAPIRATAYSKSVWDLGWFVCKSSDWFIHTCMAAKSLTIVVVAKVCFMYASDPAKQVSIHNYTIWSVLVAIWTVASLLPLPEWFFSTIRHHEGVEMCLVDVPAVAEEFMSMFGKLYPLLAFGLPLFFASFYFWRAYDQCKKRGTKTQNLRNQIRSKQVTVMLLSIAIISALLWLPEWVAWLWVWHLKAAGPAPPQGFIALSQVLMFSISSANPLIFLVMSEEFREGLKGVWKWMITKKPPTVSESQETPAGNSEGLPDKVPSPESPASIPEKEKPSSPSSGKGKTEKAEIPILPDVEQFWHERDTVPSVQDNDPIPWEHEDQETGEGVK

Compound | EC50
COc1cccc(-c2nnc3n2N=C(c2cccc([N+](=O)[O-])c2)CS3)c1 | > 28 µM (inactive)
Cc1sc(NC(=O)c2cc3ccccc3oc2=O)nc1-c1ccc(Br)cc1 | > 18.6 µM (inactive)
NC(=O)c1ccc(-c2ccc(N3CCOCC3)nc2)s1 | > 25.9 µM (inactive)
CC(C)N(CCNc1nc(N2CCC(N3CCOCC3)CC2)nc2c1ncn2C1CCCCC1)C(C)C | > 29.5 µM (inactive)
Cc1cc(C)c(C#N)c(Oc2cccc(N)c2)n1 | > 28 µM (inactive)
O=C(c1cccs1)N1CCN=C1SCc1cccc([N+](=O)[O-])c1 | > 28 µM (inactive)
CSc1nc(-c2ccccc2)cn1-c1ccc(F)cc1 | > 35.5 µM (inactive)
CC1(C)Cc2c(C#N)c(N3CCCC3)nc(-c3ccco3)c2CO1 | > 28 µM (inactive)
CCC[n+]1c(/C=C2\Sc3ccccc3N2CC)ccc2ccccc21 | > 24.5 µM (inactive)
O=C(NN=C1CCCCC1)C(O)(c1ccccc1)c1ccccc1 | > 28 µM (inactive)
O=C1N(CN2CCC3(CC2)OCCO3)c2ccccc2C12OCCCO2 | > 28 µM (inactive)
O=C(NCSc1ccncn1)c1ccccc1 | > 41.2 µM (inactive)
Nc1cccc(-c2nc3ccc(N)cc3s2)c1 | > 36 µM (inactive)
CCOc1ccc(-c2n[nH]c(=S)n2-c2ccccc2)cc1 | inactive
COc1ccc(-c2ccc(C(N)=O)s2)cn1 | > 28.1 µM (inactive)
COc1ccc(-c2ccc(/C=N/N3C(=O)C4C5C=CC(C6CC56)C4C3=O)o2)c([N+](=O)[O-])c1 (configuration not stated) | > 28 µM (inactive)
CSc1ccc(/C=N/NC(=O)C[n+]2ccccc2)cc1 | > 28 µM (inactive)
N#Cc1sc(NC(=O)c2ccc(F)c(F)c2)nc1Cl | > 28 µM (inactive)
O=C(Cn1[nH]c(=O)c2ccccc2c1=O)Nc1cccnc1 | 0.00579 µM
Cc1cc2c(cc1C)C(c1cc([N+](=O)[O-])ccc1Cl)CC(=O)N2 (configuration not stated) | > 33.6 µM (inactive)
OC(c1cccnc1)c1ccc2c(c1)CN(Cc1cccc(Cl)c1)CCO2 (configuration not stated) | > 28 µM (inactive)
O=C(O)C1CCCN(c2ncnc3scc(-c4ccccc4)c23)C1 (configuration not stated) | > 29.7 µM (inactive)
COc1ccc(-c2ccc(C(=O)Nc3ccccc3)s2)cn1 | > 28 µM (inactive)
O=C(Nc1ccc(-c2cccc(F)c2)cc1)C1CCCN(C(=O)C2CCOCC2)C1 (configuration not stated) | > 28 µM (inactive)
Cc1nn(C)cc1CN1CCOc2ccc(CN3CCc4ccccc4C3)cc2C1 | > 28 µM (inactive)

Compound | EC50
COc1ccc(-c2nc(Nc3ccc(C)c(Cl)c3)c3ccccc3n2)cc1OC | > 26.1 µM (inactive)
Cc1cc2nc3c(=O)n(C4CCCCCC4)c(=O)[nH]c3nc2cc1N | > 28 µM (inactive)
Clc1ccc(-c2nc(-c3ccccn3)no2)c(Cl)c1 | > 29.7 µM (inactive)
Cc1sc2ncnc(N3CCN(c4ccccn4)CC3)c2c1C | > 32.6 µM (inactive)
COc1ccc(-c2nc(-c3ccccn3)no2)cc1 | > 35.9 µM (inactive)
C/C(=C\c1ccccc1)C(=O)Nc1ccccc1C(=O)O | > 31.9 µM (inactive)
O=C1CCCN1CCn1cnc2c(NCCOc3ccccc3)nc(N3CCc4ccccc4C3)nc21 | > 27.9 µM (inactive)
O=C(O)c1ccc(-n2cc(-c3cnccn3)cn2)cc1 | > 28 µM (inactive)
O=[N+]([O-])c1ccc(/C=C/c2ccc(O)cc2)cc1 | > 28.9 µM (inactive)
COc1ccc(CCNc2ncnc3c2oc2ccccc23)cc1OC | > 27.6 µM (inactive)
COc1ccc(-c2noc(-c3cc4ccc(OC)cc4oc3=O)n2)cc1 | > 28 µM (inactive)
O=C1/C(=C\c2ccncc2)SC(=S)N1Cc1ccccc1 | inactive
CC(C)CC(NC(=O)C(C)NC(=O)CNC(=O)C(NC=O)C(C)C)C(=O)NC(C)C(=O)NC(C(=O)NC(C(=O)NC(C(=O)NC(Cc1c[nH]c2ccccc12)C(=O)NC(CC(C)C)C(=O)NC(Cc1c[nH]c2ccccc12)C(=O)NC(CC(C)C)C(=O)NC(Cc1c[nH]c2ccccc12)C(=O)NC(CC(C)C)C(=O)NC(Cc1c[nH]c2ccccc12)C(=O)NCCO)C(C)C)C(C)C)C(C)C (configuration not stated) | 0.97 µM
COc1cc(CNc2ccc3ncc(-c4cnn(C)c4)n3n2)cc(OC)c1OC | > 28 µM (inactive)
Cc1ccn2cc(-c3ccc(F)cc3)nc2c1 | > 30.9 µM (inactive)
O=C(O)c1ccc(-n2cc(-c3ccc(Cl)cc3)cn2)cc1 | > 28 µM (inactive)
C1=Nc2ccccc2SC(c2cccnc2)=C1 | > 28.2 µM (inactive)
O=c1c2ccccc2cnn1-c1nc2ccccc2[nH]1 | > 29.9 µM (inactive)
NC[C@H]1O[C@H](O[C@H]2[C@H](O)[C@@H](O[C@H]3O[C@H](CO)[C@@H](O)[C@H](N)[C@H]3O)[C@H](N)C[C@@H]2N)[C@H](N)C[C@@H]1O | > 28 µM (inactive)
CCNc1nc(OC(C(F)(F)F)C(F)(F)F)nc(N2CCCCC2)n1 | > 28 µM (inactive)
Cn1c(N)c(S(=O)(=O)N2CCN(c3ccccc3Cl)CC2)c(=O)n(C)c1=O | > 28.4 µM (inactive)
Cc1ccc(-c2nc(-c3ccccn3)no2)cc1 | > 31.3 µM (inactive)
Fc1ccc(CSc2ncn[nH]2)cc1 | > 50.7 µM (inactive)
c1cncc(-c2noc(C34CC5CC(CC(C5)C3)C4)n2)c1 | > 26.4 µM (inactive)
OC1CCN(Cc2ccc3c(c2)CN(CC2CC=CCC2)CCO3)CC1 (configuration not stated) | > 28 µM (inactive)

Now from value to compound:

EC50 | Compound
> 28 µM (inactive) | Cn1nc(C(=O)NCc2ccc(F)cc2)c2c1-c1ccccc1OC2
> 28 µM (inactive) | CCOC(=O)c1c(C)c(C(=O)NCCC(C)C)c(C)n1C
> 28 µM (inactive) | Cc1nc(NC(=O)CSc2ccc(-c3nc4ccccc4[nH]3)cn2)sc1C
> 28 µM (inactive) | CCC(C)c1ccccc1NC(=S)NC(C)=O (configuration not stated)
> 28 µM (inactive) | C=CCOC(=O)CCN1C(=O)c2ccccc2C1=O
> 28 µM (inactive) | CCc1ccc2c(c1)/C(=C/C(=O)c1cccs1)C(=O)N2
> 28 µM (inactive) | COC(=O)CN1C(=O)S/C(=C\c2cc(Br)c(OC)c(OC)c2)C1=O
> 31.1 µM (inactive) | CCCCCCOc1ccc(C(=O)O)cc1OC
> 28 µM (inactive) | COc1ccc(/C=C/C(=O)Nc2ccccc2C(=O)O)cc1OC
> 28 µM (inactive) | CCN(CC)C(=O)CN(c1ccccc1)S(=O)(=O)c1ccc(C)cc1
> 26.6 µM (inactive) | COc1cc(C2CC(=O)Nc3cc(C)c(C)cc32)cc(OC)c1OC (configuration not stated)
> 28 µM (inactive) | CCCCNC(=O)/C(=C/c1ccccc1)NC(=O)/C=C/c1ccco1
> 18.8 µM (inactive) | CCOc1ccc(NC(=O)C(=O)NCCN2CCN(S(=O)(=O)c3ccc4ccccc4c3)CC2)cc1
> 28 µM (inactive) | COc1ccc(-c2nnc3sc(NC(=O)C(C)C)nn23)cc1OC
> 28 µM (inactive) | CC(C)NC(=O)c1cnc2scc(-c3ccccc3)n2c1=O
> 31.6 µM (inactive) | Cc1ccc(Nc2ncnc3sc(C)c(C)c23)cc1F
> 28 µM (inactive) | Cc1ccc(S(=O)(=O)N(CC(O)Cn2nc(C)cc2C)c2cccc([N+](=O)[O-])c2)cc1 (configuration not stated)
> 28 µM (inactive) | CC(C)CCN1C(=O)C(C)(C)COc2cc(NC(=O)c3ccc4c(c3)OCO4)ccc21
> 33 µM (inactive) | O=C(NCCOc1ccccc1)c1ccc(-c2ccc(N3CCOCC3)nc2)s1
> 28 µM (inactive) | O=C(O)c1cccc(COc2ccc(CO)cc2Br)c1
> 28 µM (inactive) | COc1ccccc1CN[C@H]1C[C@H]2C(=O)N[C@@H](CC(C)C)C(=O)N2C1
> 28.7 µM (inactive) | O=C(COC(=O)CCS(=O)(=O)c1ccccc1Cl)NC(=O)NCc1ccco1
> 28 µM (inactive) | C=CCOc1ccc(C(=O)N(Cc2nc(-c3ccc(OC)c(OC)c3)no2)C(C)C)cc1
> 40 µM (inactive) | CCOc1cc(/C=c2/sc3n(c2=O)CCN=3)ccc1O

EC50 | Compound
> 25.7 µM (inactive) | CCCNC(=O)c1ccc2nc(-c3csc4ccccc34)sc2c1
> 31.7 µM (inactive) | COc1ccc(C(=O)Nc2ccc(-n3nncc3C(C)(C)C)cc2)cc1
> 27.6 µM (inactive) | CCN1CCc2c(sc(NC(=O)c3ccc(S(=O)(=O)N4CCCC(C)C4)cc3)c2C(=O)OC)C1 (configuration not stated)
> 27.4 µM (inactive) | COC(=O)c1cc2c(N3CCC(Cc4ccccc4)CC3)ncnc2s1
> 28 µM (inactive) | COC(=O)c1ccc(CN2CCN(Cc3ccc(OC)c(C)c3)C(CCO)C2)cc1 (configuration not stated)
> 28.2 µM (inactive) | COc1ccc(-c2ccc(C(=O)NCc3cccnc3)s2)cc1
> 28 µM (inactive) | CC(C)N1CCC(=NNC(=O)c2ccc(C(C)(C)C)cc2)CC1
> 28 µM (inactive) | COc1ccc(C(=O)Nc2cccc(C(=O)N3CCCC3)c2)cc1
> 28 µM (inactive) | CCOC(=O)N1CCN(C(=S)Nc2ccc(C)cc2)CC1
> 28 µM (inactive) | COc1cc(C2NC(=O)NC(C)=C2C(C)=O)cc(Br)c1OCc1ccccc1 (configuration not stated)
> 28 µM (inactive) | CCOC(=O)c1ccccc1NC(=O)CN(c1ccc(Cl)c(Cl)c1)S(C)(=O)=O
> 29.2 µM (inactive) | COc1ccc(-c2cn3cc(C(=O)O)ccc3n2)cc1
> 27.8 µM (inactive) | Cn1c2c(c(=O)n(C)c1=O)C(c1cccc(F)c1)C1=C(CC(C)(C)CC1=O)N2 (configuration not stated)
> 28 µM (inactive) | CC(C(=O)O)c1ccc(C(=O)c2ccccc2)s1 (configuration not stated)
> 28 µM (inactive) | Cc1ccc(NC(=O)/C(C#N)=C\c2ccccc2O)cc1C
> 28 µM (inactive) | Cc1csc2ncc(C(=O)N3CCc4ccccc43)c(=O)n12
> 25.9 µM (inactive) | CC(=O)c1ccc(OC(=O)c2cccc(Br)c2)cc1
> 39.8 µM (inactive) | COc1cc(OC)cc(C(=O)NC2CCCCCCC2)c1
> 28 µM (inactive) | Cc1ccc(-c2nnc3sc(NC(=O)CC(C)C)nn23)cc1
> 28 µM (inactive) | COc1ccc(C(=O)N/N=C/c2ccc(O)cc2O)cc1OC
> 31.5 µM (inactive) | COc1cc(OC)cc(C(=O)Nc2ccc3c(c2)OCO3)c1
> 28.4 µM (inactive) | Cc1ccnc(SCc2cc(=O)c(OC(=O)c3cc(Cl)ccc3[N+](=O)[O-])co2)n1
> 28 µM (inactive) | CCN(CC)c1ccc(NC(=O)/C=C\C(=O)O)cc1
